{"source": "patent EP0385663B1", "about": "“Heterocyclic cycloalkanes as inhibitors of 5-lipoxygenase” (ZENECA LIMITED, priority 1989, dated 1990)", "key": {"5-LO": {"system": "5-LO", "test": "Test c): ex vivo assay, compound administered, blood collected, A23187 challenge, LTB₄ radioimmunoassay", "type": "in vivo", "method": "(§1) As stated previously, the heterocyclic cycloalkanes of the formula I are inhibitors of the enzyme 5-LO. […] This test provides a measure of the intrinsic inhibitory properties against soluble 5-LO in an extracellular environment. • b) An in vitro assay system involving incubating a test compound with heparinised human blood, prior to challenge with the calcium ionophore A23187 and then indirectly measuring the inhibitory effects on 5-LO by assaying the amount of LTB₄ using the specific radioimmunoassay described by Carey and Forder (F. Carey and R.A. Forder, Brit. […] The effects of a test compound on the enzyme cyclooxygenase (which is involved in the alternative metabolic pathway for arachidonic acid and gives rise to prostaglandins, thromboxanes and related metabolites) may be measured at the same time using the specific radioimmunoassay for thromboxane B₂(TxB₂) described by Carey and Forder (see above). […] It permits the selectivity of the inhibitory effect on 5-LO or cyclooxygenase to be assessed. • c) An ex vivo assay system, which is a variation of test b) above, involving administration of a test compound (usually orally as the suspension produced when a solution of the test compound in dimethylsulphoxide is added to carboxymethylcellulose), blood collection, heparinisation, challenge with A23187 and radioimmunoassay of LTB₄ and TxB₂. […]"}, "cyclooxygenase": {"molecular_target": "T1, cyclooxygenase (Homo sapiens, UniProt P23219)", "T1 construct": "incubating a test compound with heparinised human blood; endogenous in cells; host or cells: blood cells (platelets) in heparinised human whole blood", "T1 sequence (P23219 24-599)": "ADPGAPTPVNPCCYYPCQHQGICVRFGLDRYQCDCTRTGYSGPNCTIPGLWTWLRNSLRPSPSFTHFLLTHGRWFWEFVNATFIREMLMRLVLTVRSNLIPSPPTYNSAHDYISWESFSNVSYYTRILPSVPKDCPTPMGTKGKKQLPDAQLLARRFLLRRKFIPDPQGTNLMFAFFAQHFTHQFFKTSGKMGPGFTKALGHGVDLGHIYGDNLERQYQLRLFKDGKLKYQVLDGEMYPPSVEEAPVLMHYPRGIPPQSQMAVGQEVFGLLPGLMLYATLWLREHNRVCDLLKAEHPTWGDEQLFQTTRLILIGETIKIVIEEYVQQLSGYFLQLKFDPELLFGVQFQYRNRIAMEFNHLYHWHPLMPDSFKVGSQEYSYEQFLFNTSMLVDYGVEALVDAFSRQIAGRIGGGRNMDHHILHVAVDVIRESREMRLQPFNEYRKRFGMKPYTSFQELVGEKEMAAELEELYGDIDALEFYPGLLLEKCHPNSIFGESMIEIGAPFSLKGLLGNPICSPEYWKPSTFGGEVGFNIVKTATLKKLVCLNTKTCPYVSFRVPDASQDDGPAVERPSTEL", "test": "Test b): heparinised human blood challenged with A23187, TxB₂ radioimmunoassay", "type": "cell-based", "settings": "read-out: IC₅₀ (TxB₂)", "method": "as §1"}}, "data": [{"compound": "CO[C@@H]1CCC[C@]1(OC)c1cccc(OCC#Cc2ccccn2)c1", "note": "(relative stereo) [Example 2, trans-1,2-dimethoxy-1-[3-(3-(2-pyridyl)prop-2-yn-1-yloxy)phenyl]cyclopentane]", "values": [{"measurement": "oral ED₅₀(LTB₄)", "setting": "5-LO", "value": "< 100", "unit": "mg/kg"}, {"measurement": "IC50", "setting": "cyclooxygenase", "value": "> 40", "unit": "µM"}]}]}
